Data as given in ChEMBL document CHEMBL3885881, “DrugMatrix”.

Organism: Rattus norvegicus
Assay type: toxicity, organism-based, Sprague-Dawley
Details: in vivo, po, 24 h, route oral GAVAGE, time 1 day, vehicle .5 % CMC; for ABSOLUTE EOSINOPHIL / ABSOLUTE LYMPHOCYTE / ABSOLUTE MONOCYTE / ABSOLUTE SEGMENTED NEUTROPHIL / BASOPHIL / EOSINOPHIL / ERYTHROCYTE COUNT / HEMATOCRIT / HEMOGLOBIN / LEUKOCYTE COUNT / LYMPHOCYTE / MEAN CORPUSCULAR HEMOGLOBIN / MEAN CORPUSCULAR HEMOGLOBIN CONCENTRATION / MEAN CORPUSCULAR VOLUME / MONOCYTE / NEUTROPHIL / NUCLEATED RED BLOOD CELLS / PLATELET COUNT: tissue Blood; for ALANINE AMINOTRANSFERASE / ALBUMIN / ALKALINE PHOSPHATASE / ASPARTATE AMINOTRANSFERASE / BLOOD UREA NITROGEN / CARBON DIOXIDE / CHLORIDE / CHOLESTEROL / CREATININE / GLUCOSE / LACTATE DEHYDROGENASE / LIPASE / PHOSPHORUS / POTASSIUM / SODIUM / TOTAL BILIRUBIN / TOTAL PROTEIN / URIC ACID: tissue Plasma
[1] = 0 mg/kg, vehicle control, dose level Control

Description: DrugMatrix - Regimen: Single

ClC(Cl)Br [BROMODICHLOROMETHANE]
ABSOLUTE EOSINOPHIL [1]: 150 CELLS/uL
ABSOLUTE LYMPHOCYTE [1]: 13279.83 CELLS/uL
ABSOLUTE MONOCYTE [1]: 654.5 CELLS/uL
ABSOLUTE SEGMENTED NEUTROPHIL [1]: 1565.67 CELLS/uL
BASOPHIL [1]: 0%
EOSINOPHIL [1]: 1%
ERYTHROCYTE COUNT [1]: 5.36 x10E6/uL
HEMATOCRIT [1]: 33.37%
HEMOGLOBIN [1]: 12.52 G/DL
LEUKOCYTE COUNT [1]: 15.65 x10E3/uL
LYMPHOCYTE [1]: 84.83%
MEAN CORPUSCULAR HEMOGLOBIN [1]: 23.4 pg
MEAN CORPUSCULAR HEMOGLOBIN CONCENTRATION [1]: 37.52 G/DL
MEAN CORPUSCULAR VOLUME [1]: 62.32 fL
MONOCYTE [1]: 4.17%
NEUTROPHIL [1]: 10%
NUCLEATED RED BLOOD CELLS [1]: 0 /100WBC
PLATELET COUNT [1]: 1020 x10E3/uL
ALANINE AMINOTRANSFERASE [1]: 49 u/L
ALBUMIN [1]: 4.47 G/DL
ALKALINE PHOSPHATASE [1]: 361.17 u/L
ASPARTATE AMINOTRANSFERASE [1]: 78.67 u/L
BLOOD UREA NITROGEN [1]: 13.17 mg/dL
CARBON DIOXIDE [1]: 29.67 mmol/L
CHLORIDE [1]: 100.83 MEQ/L
CHOLESTEROL [1]: 82.17 mg/dL
CREATININE [1]: 0.15 mg/dL
GLUCOSE [1]: 150.83 mg/dL
LACTATE DEHYDROGENASE [1]: 239.17 u/L
LIPASE [1]: 7.83 u/L
PHOSPHORUS [1]: 13.82 mg/dL
POTASSIUM [1]: 6.62 MEQ/L
SODIUM [1]: 144.25 MEQ/L
TOTAL BILIRUBIN [1]: 0.15 mg/dL
TOTAL PROTEIN [1]: 6.2 G/DL
URIC ACID [1]: 1.57 mg/dL
ABSOLUTE EOSINOPHIL (430 mg/kg, dose level High): 41.33 CELLS/uL
ABSOLUTE LYMPHOCYTE (430 mg/kg, dose level High): 10502.67 CELLS/uL
ABSOLUTE MONOCYTE (430 mg/kg, dose level High): 677 CELLS/uL
ABSOLUTE SEGMENTED NEUTROPHIL (430 mg/kg, dose level High): 1645.67 CELLS/uL
BASOPHIL (430 mg/kg, dose level High): 0%
EOSINOPHIL (430 mg/kg, dose level High): 0.33%
ERYTHROCYTE COUNT (430 mg/kg, dose level High): 6.1 x10E6/uL
HEMATOCRIT (430 mg/kg, dose level High): 36.03%
HEMOGLOBIN (430 mg/kg, dose level High): 13.4 G/DL
LEUKOCYTE COUNT (430 mg/kg, dose level High): 12.87 x10E3/uL
LYMPHOCYTE (430 mg/kg, dose level High): 81.67%
MEAN CORPUSCULAR HEMOGLOBIN (430 mg/kg, dose level High): 21.97 pg
MEAN CORPUSCULAR HEMOGLOBIN CONCENTRATION (430 mg/kg, dose level High): 37.2 G/DL
MEAN CORPUSCULAR VOLUME (430 mg/kg, dose level High): 59.07 fL
MONOCYTE (430 mg/kg, dose level High): 5.33%
NEUTROPHIL (430 mg/kg, dose level High): 12.67%
NUCLEATED RED BLOOD CELLS (430 mg/kg, dose level High): 0 /100WBC
PLATELET COUNT (430 mg/kg, dose level High): 1251 x10E3/uL
ALANINE AMINOTRANSFERASE (430 mg/kg, dose level High): 62 u/L
ALBUMIN (430 mg/kg, dose level High): 4.77 G/DL
ALKALINE PHOSPHATASE (430 mg/kg, dose level High): 394.67 u/L
ASPARTATE AMINOTRANSFERASE (430 mg/kg, dose level High): 108 u/L
BLOOD UREA NITROGEN (430 mg/kg, dose level High): 16.33 mg/dL
CARBON DIOXIDE (430 mg/kg, dose level High): 25 mmol/L
CHLORIDE (430 mg/kg, dose level High): 103 MEQ/L
CHOLESTEROL (430 mg/kg, dose level High): 68 mg/dL
CREATININE (430 mg/kg, dose level High): 0.18 mg/dL
GLUCOSE (430 mg/kg, dose level High): 128.67 mg/dL
LACTATE DEHYDROGENASE (430 mg/kg, dose level High): 323 u/L
LIPASE (430 mg/kg, dose level High): 10 u/L
PHOSPHORUS (430 mg/kg, dose level High): 11.43 mg/dL
POTASSIUM (430 mg/kg, dose level High): 5.73 MEQ/L
SODIUM (430 mg/kg, dose level High): 144.9 MEQ/L
TOTAL BILIRUBIN (430 mg/kg, dose level High): 0.17 mg/dL
TOTAL PROTEIN (430 mg/kg, dose level High): 6.5 G/DL
URIC ACID (430 mg/kg, dose level High): 1.7 mg/dL
